Experimental data from patent US9365534B2, “Arylated camphenes, processes for their preparation and uses thereof” (Yissum Research Development Company of the Hebrew …, priority 2009, dated 2016).
“And” between values parts separate entries of the source, which are not always exact repeats. Identical values can stand only once.

Experiments:
[1] = molecular target: human CB2 receptor (Homo sapiens (Human), UniProt P34972); assay: cell-based; conditions: for Emax: CHO, read-out: cAMP Assay CB2 Receptor Emax; for IC50: read-out: cAMP Assay CB2 Receptor IC50
Excerpt: (§1) The cDNA clones for human HA-tagged CB1 and CB2 receptors were obtained from the Missouri S&T cDNA Resource Center (www.cdna.org) in cloning vector pcDNA3.1+. The vector containing the human CB2 receptor was transfected directly into CHO-KI cells obtained from ATCC. The HA-tagged human CB1 receptor sequence was subcloned into the pef4-V5-HisA vector with Kpn1 and Pme1 restriction enzymes and subsequently transfected into CHO-K1 cells. Cells were clonally isolated by limited dilution and screened by immunocytochemistry for expression of the HA tag.
(§2) Cells were maintained in DMEM/F12 media supplemented with 10% fetal bovine serum (FBS), 100 units/ml penicillin and 100 μg/ml streptomycin and 2 mM L-glutamine. Transfected cell lines were maintained with additional 150 ug/ml zeocin for pEF HA-CB1 transfected cells and 500 ug/ml G-418 for pcDNA HA-CB2 transfected cells (all reagents obtained from Invitrogen).
(§3) Cells were seeded at a density of 10,000 cells per well in poly-L-lysine treated 96-well culture plates (BD Biosciences). The following day wells were incubated with 40 μl DMEM/F12 containing 0.5% (w/v) BSA and 0.5 mM 3-isobutyl-1-methylxanthine (Sigma-Aldrich) for 30 minutes prior to 15 min stimulation with 50 μM forskolin (Tocris Cookson) and varying concentrations of indicated compounds at 37° C., 5% CO2. Assays were stopped by removal of media and addition of 100% ice cold ethanol. Plates were then frozen for a minimum of two hours before complete evaporation of ethanol. The well contents were then reconstituted in 50 μl cAMP assay buffer (20 mM HEPES pH 7.5 and 5 mM EDTA). Half of the reconstituted sample was transferred to round bottom 96-well plates (Greiner Bio-One GmbH) with 50 μl 0.01% w/v PKA (cAMP dependent protein kinase (Sigma-Aldrich) in 1 mM Na citrate pH 6.5 with 2 mM dithiothreitol) and 25 μl [^3H]-cAMP (at 22 nM in cAMP assay buffer) (GE Healthcare, Life Sciences). This was allowed to equilibrate for 3-18 hours. Following this a charcoal slurry (5% (w/v) activated charcoal and 0.2% (w/v) BSA in cAMP assay buffer) was added to the samples and the plates centrifuged at 3000×g, 4° C. for 5 min. Radioactive counts within the supernatant were then determined as described for competition binding assays.
(§4) pIC50 values were determined from cAMP assays by fitting a sigmoidal concentration response curve using Prism 4.02.

[2] = molecular target: human CB1 receptor (Homo sapiens (Human), UniProt P21554); assay: cell-based; conditions: whole cells expressing CB1, 50 μM forskolin; read-out: cAMP Assay CB1 Receptor IC50
human CB1 receptor, sequence (P21554 whole entry): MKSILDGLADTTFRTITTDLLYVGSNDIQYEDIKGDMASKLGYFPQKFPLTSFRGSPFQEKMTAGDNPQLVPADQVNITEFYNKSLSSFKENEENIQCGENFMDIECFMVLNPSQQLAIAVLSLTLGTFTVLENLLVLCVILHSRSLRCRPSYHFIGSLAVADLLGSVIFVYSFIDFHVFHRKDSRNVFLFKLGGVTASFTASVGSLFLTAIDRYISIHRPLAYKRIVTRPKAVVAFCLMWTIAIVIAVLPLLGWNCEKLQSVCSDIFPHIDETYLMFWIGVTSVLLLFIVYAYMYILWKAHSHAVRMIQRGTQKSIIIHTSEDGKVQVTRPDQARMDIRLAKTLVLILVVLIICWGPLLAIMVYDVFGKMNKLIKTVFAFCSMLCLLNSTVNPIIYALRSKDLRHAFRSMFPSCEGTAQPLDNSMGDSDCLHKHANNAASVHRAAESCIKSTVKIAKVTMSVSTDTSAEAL
Excerpt: as §1, §2, §3, §4

[3] = system: TNF-α; assay: TNF-α production in brain following CHI (ELISA); assay type: in vivo, mice; conditions: HU-914 5 mg/kg i.p. 1 h after CHI, sacrificed 4 hrs after CHI
Method: TNF-α activity can be induced by ischemic and traumatic brain injury starting at 1-2 h and reaching the peak at 4 h following CHI. (Shohami et al., 1997). The next step was to investigate the effect of HU-914 on TNF-α production after CHI. Three groups of mice (n=5-6) were subjected to CHI: • Group 1 (Control): Sham controls received anesthesia and skin incision only. • Group 2: Vehicle only (ethanol:cremophor:saline at ratio of 1:1:18), i.p. 1 h after CHI. • Group 3: HU-914, 5 mg/kg, dissolved in vehicle (1:1:18 ethanol:cremophor:saline), i.p. 1 h after CHI.
The animals were sacrificed 4 hrs after CHI by decapitation. Brains were rapidly removed and dissected into ipsilateral and contralateral cortical and hippocampal segments that were frozen in liquid nitrogen and kept at […]. […] Following sonication on ice for 45 s and centrifugation at 12,000 rpm for 20 min, protein concentrations in the supernatants were determined using the Bradford method (Bio-Rad Laboratories, Munich, Germany). Supernatants were analyzed by enzyme-linked immunosorbent assay (ELISA) for production of TNF-α, using cytokine specific kit from R&D Systems (Minneapolis, Minn.). […] TNF-α elevation was not detected in the right cortex or hippocampus (FIG. 8).

[4] = system: closed head injury (CHI); assay: Closed head injury (CHI) model, neurological severity score, C57Bl mice; assay type: in vivo
Method: The study was conducted according to the guidelines of the Institutional Animal Care Committee of the Hebrew University. Male Sabra mice weighing 35 to 50 g were used in all experiments. Animals were kept under controlled light conditions with a 12 h/12 h light/dark cycle. Experimental closed head injury (CHI) was induced using a modified weight drop device developed in our laboratory as described previously (Chen et al., 1996). At 1 h after CHI, the functional status of the mice was evaluated according to a set of 10 neurobehavioral tasks, namely the neurological severity score (NSS). This score is based on the ability of the mice to perform 10 different tasks (Beni-Adani et al., 2001) that evaluate their motor ability, balance, and alertness. One point is given for failing to perform a task. The severity of injury is indicated by the initial NSS, which is evaluated 1 h after CHI and is also a reliable predictor of the later outcome. A score of 10 reflects maximal neurologic impairment, and a decrease of NSS during the recovery period indicates partial recovery of function.
Data was analyzed using the Prism 4.02 programme (GraphPad Software, San Deigo, Calif., USA). The data are expressed as mean±SEM and statistical significance was assessed with one way analysis of variance (ANOVA) followed by a Dunnett's post-hoc analysis for TNF-α levels. […]

SMILES	Emax [1]	IC50 [1]	IC50 [2]	TNF-α level, left cortex [3]	TNF-α production, hippocampus of the injured left hemisphere [3]	recovery, Neurological Severity Score (NSS) ([4]; HU-914 2.5 and 5 mg/kg i.p., day 14 post injury, vs vehicle or 10 mg/kg)	most effective doses (NSS recovery) ([4]; i.p. 1 h after CHI, followed 14 days)
CCCCCCC(C)(C)c1cc(OC)c(C2=C[C@H]3CC[C@]2(CO)C3(C)C)c(OC)c1 [HU-910, (1S,4R)-(2-(2,6-dimethoxy-4-(2-methyloctan-2-yl)phenyl)-7,7-dimethylbicyclo[2.2.1]hept-2-en-1-yl)methanol]	105 ± 12%	162 nM	> 50000 nM	–	–	–	–
CCCCCCC(C)(C)c1cc(OC)c(C2=C[C@H]3CC[C@]2(C(=O)O)C3(C)C)c(OC)c1 [HU-914, (1S,4R)-2-(2,6-dimethoxy-4-(2-methyloctan-2-yl)phenyl)-7,7-dimethylbicyclo[2.2.1]hept-2-ene-1-carboxylic acid]	82 ± 7%	2290 nM	> 50000 nM	did not affect the cytokine's level	inhibited TNF-α production	significant greater recovery	2.5 mg/kg and 5 mg/kg
